From patent US12612384B2, “Heterocyclic CYP4A inhibitor compounds and compositions thereof” (MBD CO., LTD., priority 2021, dated 2026)

target: T1, CYP4A (Homo sapiens, UniProt Q02928); test: CYP4A enzyme assay (luminescence, Luciferin-ME); format: biochemical; details: Compound concentration 5 μM; 50%-70%; read-out: % Inhibition 50%-70%
T1 construct: purchased; host or cells: bacterial membranes ('bactosome')
T1 sequence (Q02928 5-519): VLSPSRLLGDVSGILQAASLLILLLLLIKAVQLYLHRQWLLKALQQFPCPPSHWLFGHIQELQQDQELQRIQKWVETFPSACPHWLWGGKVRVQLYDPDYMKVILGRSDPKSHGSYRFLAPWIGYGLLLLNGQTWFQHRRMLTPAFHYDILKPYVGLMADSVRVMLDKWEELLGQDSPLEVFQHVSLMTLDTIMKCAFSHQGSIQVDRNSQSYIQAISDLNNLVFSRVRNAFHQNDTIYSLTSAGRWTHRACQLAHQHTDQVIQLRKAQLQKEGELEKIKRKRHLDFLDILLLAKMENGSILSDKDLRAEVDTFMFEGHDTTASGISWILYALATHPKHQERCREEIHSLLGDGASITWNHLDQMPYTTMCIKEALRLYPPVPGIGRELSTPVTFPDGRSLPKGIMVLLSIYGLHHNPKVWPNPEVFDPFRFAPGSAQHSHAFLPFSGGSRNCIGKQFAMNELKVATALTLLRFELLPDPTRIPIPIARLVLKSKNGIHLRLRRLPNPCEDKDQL
Procedure, shortened: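 Compounds (5 μM) were preincubated 15 min at room temperature with CYP4A bactosomes in 100 mM KPO4, 0.1% BSA, 1 mM DTT. Reaction ran 30 min at room temperature after adding 5 mM Luciferin-ME and NADPH regeneration system. Luminescence after 15 min with detection reagent; inhibition judged by comparing well signals.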

Compound	inhibition at 5 µM [%]
O=C(C1CCN(Cc2ccc([N+](=O)[O-])cc2)C1)N1CCN(c2ccnc3ccccc23)CC1 (stereo not shown) [Example 153, (1-(4-nitrobenzyl)pyrrolidin-3-yl)(4-(quinolin-4-yl)piperazin-1-yl)methanone]	50 to 70
Cn1cnnc1CN1CC[C@H](C(=O)N2CCN(c3ccnc4cc(F)ccc34)CC2)C1 [Example 154, (S)-(4-(7-fluoroquinolin-4-yl)piperazin-1-yl)(1-((4-methyl-4H-1,2,4-triazol-3-yl)methyl)pyrrolidin-3-yl)methanone]	50 to 70

same assay, conditions: Compound concentration 5 μM; 70%-90%; read-out: % Inhibition 70%-90%

Compound	inhibition at 5 µM [%]
Cc1nn(C)c(C)c1S(=O)(=O)N1CC[C@H](C(=O)N2CCN(c3ccnc4ccccc34)CC2)C1 [Example 151, (S)-(4-(quinolin-4-yl)piperazin-1-yl)(1-((1,3,5-trimethyl-1H-pyrazol-4-yl)sulfonyl)pyrrolidin-3-yl)methanone]	70 to 90
Cc1nn(C)c(C)c1S(=O)(=O)N1CC[C@@H](C(=O)N2CCN(c3ccnc4ccccc34)CC2)C1 [Example 152, (R)-(4-(quinolin-4-yl)piperazin-1-yl)(1-((1,3,5-trimethyl-1H-pyrazol-4-yl)sulfonyl)pyrrolidin-3-yl)methanone]	70 to 90
O=C(C1CCN(Cc2nnn[nH]2)C1)N1CCN(c2ccnc3cc(F)ccc23)CC1 (stereo not shown) [Example 155, (1-((1H-tetrazol-5-yl)methyl)pyrrolidin-3-yl)(4-(7-fluoroquinolin-4-yl)piperazin-1-yl)methanone]	70 to 90
Cc1ccc2c(N3CCN(C(=O)[C@H]4CCN(S(=O)(=O)c5ncn[nH]5)C4)CC3)ccnc2c1 [Example 163, (S)-(1-((1H-1,2,4-triazol-5-yl)sulfonyl)pyrrolidin-3-yl)(4-(7-methylquinolin-4-yl)piperazin-1-yl)methanone]	70 to 90
O=C([C@H]1CCN(S(=O)(=O)c2ncn[nH]2)C1)N1CCN(c2cc(C(F)(F)F)nc3ccccc23)CC1 [Example 167, (S)-(1-((1H-1,2,4-triazol-5-yl)sulfonyl)pyrrolidin-3-yl)(4-(2-(trifluoromethyl)quinolin-4-yl)piperazin-1-yl)methanone]	70 to 90

same assay, conditions: Compound concentration 5 μM; Greater than 90%; read-out: % Inhibition Greater than 90%

Compound	inhibition at 5 µM [%]
O=C([C@H]1CCN(S(=O)(=O)c2cccnc2)C1)N1CCN(c2ccnc3cc(F)ccc23)CC1 [Example 156, (S)-(4-(7-fluoroquinolin-4-yl)piperazin-1-yl)(1-(pyridin-3-ylsulfonyl)pyrrolidin-3-yl)methanone]	> 90
O=C([C@H]1CCN(S(=O)(=O)c2ccccn2)C1)N1CCN(c2ccnc3cc(F)ccc23)CC1 [Example 157, (S)-(4-(7-fluoroquinolin-4-yl)piperazin-1-yl)(1-(pyridin-2-ylsulfonyl)pyrrolidin-3-yl)methanone]	> 90
O=C([C@H]1CCN(S(=O)(=O)c2ccc([N+](=O)[O-])cc2)C1)N1CCN(c2ccnc3cc(F)ccc23)CC1 [Example 158, (S)-(4-(7-fluoroquinolin-4-yl)piperazin-1-yl)(1-((4-nitrophenyl)sulfonyl)pyrrolidin-3-yl)methanone]	> 90
O=C([C@H]1CCN(S(=O)(=O)c2ncc[nH]2)C1)N1CCN(c2ccnc3ccc(F)cc23)CC1 [Example 159, (S)-(1-((1H-imidazol-2-yl)sulfonyl)pyrrolidin-3-yl)(4-(6-fluoroquinolin-4-yl)piperazin-1-yl)methanone]	> 90
O=C([C@H]1CCN(S(=O)(=O)c2nccn2CCO)C1)N1CCN(c2ccnc3ccc(F)cc23)CC1 [Example 160, (S)-(4-(6-fluoroquinolin-4-yl)piperazin-1-yl)(1-((1-(2-hydroxyethyl)-1H-imidazol-2-yl)sulfonyl)pyrrolidin-3-yl)methanone]	> 90
O=C(c1ncn[nH]1)N1CC[C@H](C(=O)N2CCN(c3ccnc4cc(F)ccc34)CC2)C1 [Example 161, (S)-(1-(4H-1,2,4-triazole-3-carbonyl)pyrrolidin-3-yl)(4-(7-fluoroquinolin-4-yl)piperazin-1-yl)methanone]	> 90
O=C(c1nn[nH]n1)N1CC[C@H](C(=O)N2CCN(c3ccnc4cc(F)ccc34)CC2)C1 [Example 162, (S)-(1-(2H-tetrazole-5-carbonyl)pyrrolidin-3-yl)(4-(7-fluoroquinolin-4-yl)piperazin-1-yl)methanone]	> 90
O=C([C@H]1CCN(S(=O)(=O)c2ncn[nH]2)C1)N1CCN(c2ccnc3cc(O)ccc23)CC1 [Example 164, (S)-(1-((1H-1,2,4-triazol-5-yl)sulfonyl)pyrrolidin-3-yl)(4-(7-hydroxyquinolin-4-yl)piperazin-1-yl)methanone]	> 90
COc1ccc2c(N3CCN(C(=O)[C@H]4CCN(S(=O)(=O)c5ncn[nH]5)C4)CC3)ccnc2c1 [Example 165, (S)-(1-((1H-1,2,4-triazol-5-yl)sulfonyl)pyrrolidin-3-yl)(4-(7-methoxyquinolin-4-yl)piperazin-1-yl)methanone]	> 90
Cc1nc(S(=O)(=O)N2CC[C@H](C(=O)N3CCN(c4ccnc5cc(F)ccc45)CC3)C2)n[nH]1 [Example 166, (S)-(4-(7-fluoroquinolin-4-yl)piperazin-1-yl)(1-((5-methyl-1H-1,2,4-triazol-3-yl)sulfonyl)pyrrolidin-3-yl)methanone]	> 90
O=C([C@H]1CCN(S(=O)(=O)c2ncn[nH]2)C1)N1CCN(c2ccnc3cc(F)c(F)cc23)CC1 [Example 168, (S)-(1-((1H-1,2,4-triazol-5-yl)sulfonyl)pyrrolidin-3-yl)(4-(6,7-difluoroquinolin-4-yl)piperazin-1-yl)methanone]	> 90
O=C([C@H]1CCN(S(=O)(=O)c2ncc[nH]2)C1)N1CCN(c2ccnc3cc(F)c(F)cc23)CC1 [Example 169, (S)-(1-((1H-imidazol-2-yl)sulfonyl)pyrrolidin-3-yl)(4-(6,7-difluoroquinolin-4-yl)piperazin-1-yl)methanone]	> 90
